The source of these data is patent US11286281B2, “Homodetic cyclic peptides targeting alpha-4-beta-7 integrin” (priority 2017, dated 2022).

Test [1] concerns the target T1, integrin α4β1 (Homo sapiens, UniProt P05556+P13612). Description: Whole blood ligand displacement (receptor occupancy): biotinylated rhVCAM-1 binding to α4β7-negative Th memory cells. Format: cell-based. The following applies: read-out: VCAM Competition IC50 (receptor occupancy). How it is done:
Receptor occupancy (RO) in primary cells was determined by measuring the amount of biotinylated human recombinant MAdCAM-1-FC or human recombinant VCAM-1-Fc bound to selected cell populations using flow cytometry. Human recombinant MAdCAM-1-FC or human recombinant VCAM-1-FC (R&D systems) were biotinylated using commercially available reagents and protocol (Pierce). Whole blood was collected from human donors in sodium heparin tubes. […] Cells were washed twice with 1 mL of 1×DPBS calcium magnesium free(CMF) (ThermoFisher Scientific) and resuspended in 100 μL of DPBS CMF. […] Cells were washed with 1 mL stain buffer-FBS (BD Biosciences) and resuspended in 100 μl stain Buffer-FBS (BD Biosciences) containing 4 mM MnCl2. […] Cells were then washed with 1 mL stain buffer-FBS and resuspended in 100 μl stain buffer-FBS. The cells were incubated in the dark for 30 minutes at room temperature with 1 μl Streptavidin APC (Biolegend 0.2 mg/ml) and a panel of antibodies for the detection of memory T helper a4b7-positive cells subset. And amount of 5.0 μl each of the following antibodies were used; CD45 FITC (BioLegend 200 μg/ml), CD29 APC Cy7 (BioLegend 100 μg/ml), Integrin beta7 PE, (BioLegend concentration 50 μg/mL), CD49d […] (BioLegend 50 μg/mL), CD3 […] […] Cell population were determined using the following markers, CD45+, CD3+, CD4+, CD45RO+, CD49d+, integrin β7, biotinylated ligands.

The target in test [2] is T1, integrin α4β1. Description: Integrin α4β1-VCAM human cell adhesion assay (RAMOS cells). The test is classed as cell-based. The following applies: adhesion of RAMOS cells to VCAM-1 coated plates. Details: host or cells: RAMOS human cells. As for the experimental part: Integrin α4β1-VCAM Human Cell Adhesion Assay
RAMOS human cells (ATCC CRL-1596) were cultured in RPMI 1640 medium (HyClone SH30027.1) supplemented with 10% FBS (Seradigm) and 1% Penicillin-Streptomycin. A 96-well plate (Costar, 3603) was coated with 100 μl/well of recombinant human VCAM-1 Fc Chimera (R&D systems, 862-VC-100) solution at 0.25 μg/ml in coating buffer (50 mM sodium carbonate, pH 9.6). The plate was incubated overnight at 4° C. and washed twice with […] per well wash buffer (0.05% Tween 20 in PBS), blocked with 250 μl per well blocking buffer (1% non-fat dry milk in PBS), for 1 hour at room temperature. During blocking step, RAMOS cells were resuspended at 10 million cells/ml in PBS containing […] and incubated at 37° C. for 30 min in a 50 ml tube. PBS was added to fill the tube, cells were spun down and resuspended in RPMI 1640 medium to 2 million/mi. Compounds were diluted by serial dilution in binding buffer (1.5 mM CaCl2, 0.5 mM MnCl2, 50 mM Tris-HCl, pH 7.5) to a final volume of 50 μl per well at 2× concentration. […] After last wash, 100 μL of PBS was added to wells and the fluorescence was read (Ex495/Em515) using a plate reader (Tecan Infinite 1000). To calculate the dose response, the fluorescence value of control wells not containing cells was subtracted from each test well.

Several values for one entry are separate records, joined by “and”; a condition that tells them apart may be missing. Equal entries are not always repeated. Numbered stars: 1 amine (or outer) side, 2 acyl side, 3 side chain; on linkers, the order of the positions; unused ones are H or OH. Square brackets hold non-standard residues; d marks the D form. Peptide text beside a SMILES is read from it. X1 = O=C(c1ccc(-c2ccc(N3CCNCC3)cc2)c(CN[*:1])c1)[*:2]

T1 sequence (P13612 34-1032): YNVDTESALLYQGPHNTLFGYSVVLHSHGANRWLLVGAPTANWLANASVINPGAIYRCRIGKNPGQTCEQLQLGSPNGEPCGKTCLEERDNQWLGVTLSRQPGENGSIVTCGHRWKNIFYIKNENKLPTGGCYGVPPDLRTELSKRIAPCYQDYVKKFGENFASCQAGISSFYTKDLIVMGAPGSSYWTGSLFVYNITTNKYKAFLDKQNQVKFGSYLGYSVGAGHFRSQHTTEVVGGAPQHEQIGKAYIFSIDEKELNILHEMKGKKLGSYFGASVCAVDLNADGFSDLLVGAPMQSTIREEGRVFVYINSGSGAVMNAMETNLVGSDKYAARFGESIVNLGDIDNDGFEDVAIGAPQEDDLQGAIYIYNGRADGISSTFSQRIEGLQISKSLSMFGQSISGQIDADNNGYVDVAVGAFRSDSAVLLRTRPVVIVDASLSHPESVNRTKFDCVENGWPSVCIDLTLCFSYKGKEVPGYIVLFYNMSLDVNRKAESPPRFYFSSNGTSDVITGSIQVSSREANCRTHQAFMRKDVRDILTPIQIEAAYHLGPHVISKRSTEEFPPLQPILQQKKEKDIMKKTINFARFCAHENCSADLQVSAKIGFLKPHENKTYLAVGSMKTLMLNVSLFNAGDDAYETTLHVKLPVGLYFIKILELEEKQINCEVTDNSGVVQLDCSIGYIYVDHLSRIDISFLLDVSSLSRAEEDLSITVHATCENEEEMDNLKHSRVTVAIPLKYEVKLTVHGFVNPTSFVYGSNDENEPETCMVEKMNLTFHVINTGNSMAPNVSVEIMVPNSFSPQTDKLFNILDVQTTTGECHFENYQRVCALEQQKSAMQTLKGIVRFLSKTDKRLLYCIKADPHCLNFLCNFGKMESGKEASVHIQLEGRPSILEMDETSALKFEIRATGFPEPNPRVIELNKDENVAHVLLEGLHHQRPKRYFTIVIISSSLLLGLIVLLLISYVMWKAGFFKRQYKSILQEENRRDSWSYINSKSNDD
T1 sequence (P05556 21-798): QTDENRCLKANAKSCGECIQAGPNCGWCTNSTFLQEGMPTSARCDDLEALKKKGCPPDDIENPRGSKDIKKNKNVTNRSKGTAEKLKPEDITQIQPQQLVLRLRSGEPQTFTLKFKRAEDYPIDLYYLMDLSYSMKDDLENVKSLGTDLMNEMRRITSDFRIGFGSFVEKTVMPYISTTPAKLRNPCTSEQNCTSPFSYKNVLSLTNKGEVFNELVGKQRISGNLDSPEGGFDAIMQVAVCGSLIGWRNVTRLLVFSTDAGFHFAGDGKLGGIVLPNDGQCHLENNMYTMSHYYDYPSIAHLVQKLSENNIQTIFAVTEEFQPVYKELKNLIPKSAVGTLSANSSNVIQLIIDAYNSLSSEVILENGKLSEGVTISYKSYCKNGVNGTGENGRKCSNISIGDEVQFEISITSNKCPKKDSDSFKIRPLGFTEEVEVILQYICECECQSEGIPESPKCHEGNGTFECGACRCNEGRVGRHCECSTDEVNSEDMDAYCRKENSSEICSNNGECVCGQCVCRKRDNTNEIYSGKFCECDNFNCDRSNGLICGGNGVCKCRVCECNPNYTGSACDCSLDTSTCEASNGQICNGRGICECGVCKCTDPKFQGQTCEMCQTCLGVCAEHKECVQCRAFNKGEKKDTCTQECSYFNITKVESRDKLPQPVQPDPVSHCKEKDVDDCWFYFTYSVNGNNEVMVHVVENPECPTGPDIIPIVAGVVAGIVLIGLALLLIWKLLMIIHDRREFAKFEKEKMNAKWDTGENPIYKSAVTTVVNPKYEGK

As usually defined, the IC50 is the concentration needed to halve the response being measured. Consider `CC(C)C[C@@H]1NC(=O)c2ccc(-c3ccc(N4CCNCC4)cc3)c(c2)CNC(=O)[C@@H]2CCCN2C(=O)[C@H](C)NC(=O)[C@H]([C@@H](C)O)NC(=O)[C@H](CC(=O)O)NC1=O` [Compound 8] (cyclo(P[X1]LDTA)), for which the IC50 is > 4 µM at integrin α4β1 [1]; ~0.451 µM and 0.451 µM on integrin α4β1 [2].

For the compound `CC(C)C[C@@H]1NC(=O)c2ccc(-c3ccc(N4CCN(Cc5cccc(CN6CCN(c7ccc(-c8ccc9cc8CNC(=O)[C@@H]8CCCN8C(=O)[C@H](C)NC(=O)[C@H]([C@@H](C)O)NC(=O)[C@H](CC(=O)O)NC(=O)[C@H](CC(C)C)NC9=O)cc7)CC6)c5)CC4)cc3)c(c2)CNC(=O)[C@@H]2CCCN2C(=O)[C@H](C)NC(=O)[C@H]([C@@H](C)O)NC(=O)[C@H](CC(=O)O)NC1=O` [Compound 18], the concentration for half-maximal inhibition (IC50) at integrin α4β1 [1] turned out to be 0.123 µM; at integrin α4β1 [2] it was 0.184 µM.
